In general, pKi refers to the negative decadic logarithm of the Ki, by convention in mol/L. Low readings indicate a large Ki, high ones a small Ki.

pKi: −log10 of the molar value.

This note sets out measurements from BindingDB's records for doi:10.1016/j.bmcl.2013.08.079 (Saint John'S University, 2013).

This experiment addresses Low molecular weight phosphotyrosine protein phosphatase (Homo sapiens) (UniProt P24666). As to the kind of experiment: Noncompetitive inhibition of human GST-tagged LMW-PTP-B expressed in Escherichia coli JM 109 cells using p-nitrophenyl phosphate as substrate after 15 mins by microplate reader analysis.

Sequence of Low molecular weight phosphotyrosine protein phosphatase (Homo sapiens) (P24666 whole entry, looked up): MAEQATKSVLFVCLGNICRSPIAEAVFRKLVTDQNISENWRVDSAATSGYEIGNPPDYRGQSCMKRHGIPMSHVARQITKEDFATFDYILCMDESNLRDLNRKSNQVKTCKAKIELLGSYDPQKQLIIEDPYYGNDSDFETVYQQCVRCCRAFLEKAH

As for `O=C(O)c1nc2nc(Cl)c(Cl)nc2[nH]1`, the pKi was 4.59. In the case of `CC(=O)Nc1c(C)cc(OCC(=O)O)cc1C`, the pKi is 4.14.
